This is an account of results in patent publication US20260191863A1, “PYRROLOPYRIMIDINE COMPOSITIONS FOR TREATMENT OF ITK MEDIATED CONDITIONS” (ACLARIS THERAPEUTICS, INC., priority 2022, published 2026).

SMILES strings stand for the structures. Where “and” joins values, the source holds several entries; their conditions need not be identical. Equal values may be shown once. Read-outs that look alike come from different tables or passages of the source. A value given as a limit tells only on which side of the number the result lay.

One experiment addresses T1, JAK3 (Homo sapiens, UniProt P52333).
T1 construct: IL-2/pSTAT5; endogenous in cells; host or cells: human PBMC
T1 sequence (P52333 1-1124): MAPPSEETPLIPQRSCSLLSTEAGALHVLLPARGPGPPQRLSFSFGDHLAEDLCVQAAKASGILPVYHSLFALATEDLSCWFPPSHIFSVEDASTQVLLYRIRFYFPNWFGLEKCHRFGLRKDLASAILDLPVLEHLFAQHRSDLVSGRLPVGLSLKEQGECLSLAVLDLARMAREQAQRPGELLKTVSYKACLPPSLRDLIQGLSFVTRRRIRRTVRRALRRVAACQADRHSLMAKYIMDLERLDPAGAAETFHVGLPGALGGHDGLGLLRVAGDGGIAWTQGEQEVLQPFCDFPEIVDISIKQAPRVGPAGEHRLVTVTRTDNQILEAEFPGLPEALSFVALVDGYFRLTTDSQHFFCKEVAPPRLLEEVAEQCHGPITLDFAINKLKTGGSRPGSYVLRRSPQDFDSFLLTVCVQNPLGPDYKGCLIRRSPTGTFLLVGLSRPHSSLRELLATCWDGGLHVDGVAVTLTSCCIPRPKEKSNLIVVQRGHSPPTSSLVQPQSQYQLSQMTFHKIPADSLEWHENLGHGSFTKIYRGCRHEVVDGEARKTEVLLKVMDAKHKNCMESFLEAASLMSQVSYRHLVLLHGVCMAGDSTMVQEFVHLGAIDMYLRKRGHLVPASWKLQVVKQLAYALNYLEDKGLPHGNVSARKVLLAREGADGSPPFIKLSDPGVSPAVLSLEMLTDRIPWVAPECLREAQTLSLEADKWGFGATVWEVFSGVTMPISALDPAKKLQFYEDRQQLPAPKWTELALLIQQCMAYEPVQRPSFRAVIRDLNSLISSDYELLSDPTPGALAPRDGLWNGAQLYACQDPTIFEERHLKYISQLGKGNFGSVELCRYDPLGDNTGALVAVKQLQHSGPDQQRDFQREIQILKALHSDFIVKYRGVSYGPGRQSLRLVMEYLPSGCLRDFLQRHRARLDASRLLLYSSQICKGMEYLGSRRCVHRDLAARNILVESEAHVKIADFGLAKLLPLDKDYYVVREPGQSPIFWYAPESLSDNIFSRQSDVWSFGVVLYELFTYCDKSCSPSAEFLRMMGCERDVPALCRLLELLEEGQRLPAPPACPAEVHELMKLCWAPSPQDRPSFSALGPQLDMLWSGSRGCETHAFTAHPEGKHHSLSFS
Description: Cell IC50 JAK3 hPBMC IL-2/pSTAT5. In kind it is cell-based.

A further experiment has as its system ITK (IFNγ mRNA). Briefly: SAD ex vivo PD: αCD3/αCD28 stimulated IFNγ mRNA production. Particulars: Homo sapiens; SAD study; read-out: Clinical EC50. In kind it is in vivo. The source says: (§1) Secondary Endpoints—Compound I plasma concentrations. Mean change from baseline in ex vivo stimulated pSTAT5 and pSTAT1 (signal transducer and activator of transcription); and in ex vivo stimulated IFNγ mRNA (interferon gamma messenger ribonucleic acid).
(§2) Summary of SAD data: FIGS. 4-8 and 9-13 show the SAD dose response, SAD exposure response, and SAD calculated response at Cmax by dose respectively for ITK (IL2 mRNA), ITK (IFNγ mRNA), JAK3 (pSTAT5, lymph), JAK3 (pSTAT5, CD3′ T), and ITK & JAK (IFNγ protein). Clinical and pre-clinical IC50 data for ITK (IL2 mRNA), ITK (IFNγ mRNA), JAK3 (pSTAT5, lymph), JAK3 (pSTAT5, CD3^+ T), and ITK & JAK (IFNγ protein) from the SAD study is shown in table 4.

The subject of experiment [1] is αCD3 & IL15 stimulated IFNγ protein. Description: MAD ex vivo PD: αCD3 & IL15 stimulated IFNγ protein. In kind it is in vivo, human. An excerpt: Exploratory Endpoints—Mean change from baseline in cellular, extracellular (secreted), and/or message markers of inflammation.
EC50 and IC50 data for αCD3 & αCD28 stimulated IL2mRNA, IL15 stimulated IFNγ protein, and αCD3 & IL15 stimulated IFNγ protein is shown in table 9.

A further experiment deals with ITK and JAK3. Briefly: SAD exploratory PD, all biomarker readouts. In kind it is in vivo, human. On the procedure: as §1
Results: Sixty-three subjects completed the SAD study. […] Peak concentrations were reached within 2 hours after dosing.

The next experiment deals with JAK3 (pSTAT5, lymph). Briefly: SAD ex vivo PD: IL2 stimulated pSTAT5 in lymphocytes. To be noted: Homo sapiens, Lymphocyte; SAD study; read-out: Clinical EC50.
Excerpt: as §1, §2

In general, IC50 refers to the point on the concentration scale where inhibition reaches its midpoint. Low values mean inhibition by little substance, high ones a need for much substance. As usually defined, the EC50 is the concentration at which the effect is half-maximal. On to `C=CC(=O)N1C[C@H](Nc2ncnc3[nH]cc([C@H]4CC4(F)F)c23)CC[C@@H]1C` [Compound I, 1-((2S,5R)-5-((5-((R)-2,2-difluorocyclopropyl)-7H-pyrrolo[2,3-d]pyrimidin-4-yl)amino)-2-methylpiperidin-1-yl)prop-2-en-1-one], for which, on JAK3, the “Potency relative to Ritlecitinib, JAK3 hPBMC IL-2/pSTAT5” value amounted to 2.3 fold. On JAK3 (hPBMC, IL-2/pSTAT5), the IC50 worked out at 23 nM. The JAK specificity entry on JAK3 (vs other JAK kinases like JAK2) is reported as “completely specific for JAK3”. In addition, the EC50 in the experiment with ITK (IFNγ mRNA) is 12.7 nM; in experiment [1] (Homo sapiens, read-out: MAD EC50), 0.0041 µg/mL and 11.4 nM; in experiment [1] (human whole blood dual stimulation, read-out: Human Compound I Cp to reach HWB dual stim EC50 (MAD PD data)), not below 3.47 ng/mL; in the experiment with JAK3 (pSTAT5, lymph), 137 nM. For the same compound, the “Modulation of all PD biomarker readouts” value with ITK and JAK3 is “dose- and time-dependent modulation”. The “PD markers of ITK (αCD3/αCD28 induced IL2 and IFNγ mRNA) and JAK3 (IL2 induced pSTAT5) activation” value with ITK and JAK3 was “dose-dependently inhibited”. The “Inhibition of biomarker readouts” value with ITK and JAK3 (2 hours post treatment, doses of 15 mg to 80 mg) is on record as “Near-complete inhibition”.
